Source: patent publication US20230131966A1, “FUNGICIDAL AMIDES” (FMC Corporation, priority 2020, published 2023)

How the values were obtained:
Assay type in all cases: in vivo
[1] = system: Puccinia recondita f. sp. tritici; experiment: Test B: wheat leaf rust control on wheat seedlings; conditions: for Test B disease control rating (100 = 100% disease control, 0 = no disease control): rate 250 ppm, relative to the controls; for Test B disease control rating: wheat seedlings, 100 = 100% disease control, 0 = no control
Plasmopara viticola = experiment: Test D: grape downy mildew control on grape seedlings; conditions: for Test D disease control rating (100 = 100% disease control, 0 = no disease control): rate 250 ppm, relative to the controls; for Test D disease control rating: 100 = 100% disease control, 0 = no control
Botrytis cinerea = experiment: Test E: tomato Botrytis control on tomato seedlings; conditions: for Test E disease control rating (100 = 100% disease control, 0 = no disease control): rate 250 ppm, relative to the controls; for Test E disease control rating: 100 = 100% disease control, 0 = no control
Phakopsora pachyrhizi = experiment: Test A: Asian soybean rust control on soybean seedlings; conditions: for Test A disease control rating (100 = 100% disease control, 0 = no disease control): rate 250 ppm, relative to the controls; for Test A disease control rating: soybean seedlings, 100 = 100% disease control, 0 = no control
[2] = system: Erysiphe graminis f. sp. tritici; experiment: Test G: wheat powdery mildew control on wheat seedlings; conditions: for Test G disease control rating (100 = 100% disease control, 0 = no disease control): rate 250 ppm, relative to the controls; for Test G disease control rating: 100 = 100% disease control, 0 = no control
Phytophthora infestans = experiment: whole plant or invertebrate; conditions: tomato seedlings; for Test F disease control rating (100 = 100% disease control, 0 = no disease control): rate 250 ppm, relative to the controls; for Test F disease control rating: 100 = 100% disease control, 0 = no control
Zymoseptoria tritici = experiment: Test C: wheat leaf blotch control on wheat seedlings; conditions: for Test C disease control rating (100 = 100% disease control, 0 = no disease control): rate 250 ppm, relative to the controls; for Test C disease control rating: wheat seedlings, 100 = 100% disease control, 0 = no control

| Compound | Test B disease control rating ([1]; 250 ppm) [%] | Test D disease control rating (Plasmopara viticola; 250 ppm) [%] | Test E disease control rating (Botrytis cinerea; 250 ppm) [%] | Test A disease control rating (Phakopsora pachyrhizi; 250 ppm) [%] | Test G disease control rating ([2]; 250 ppm) [%] | Test F disease control rating (Phytophthora infestans; 250 ppm) [%] | Test C disease control rating (Zymoseptoria tritici; 250 ppm) [%] | other results |
| --- | --- | --- | --- | --- | --- | --- | --- | --- |
| COc1ccnc(C(=O)NC(C)C(=O)OC(C)C2Cc3ccccc3O2)c1O (mixture of isomers) [Compound 187] |  |  |  |  |  |  |  | Test B disease control rating (100 = 100% disease control, 0 = no disease control) [1]: 100%; Test D disease control rating (100 = 100% disease control, 0 = no disease control) (Plasmopara viticola): 6%; Test E disease control rating (100 = 100% disease control, 0 = no disease control) (Botrytis cinerea): 0%; Test A disease control rating (100 = 100% disease control, 0 = no disease control) (Phakopsora pachyrhizi): 97%; Test G disease control rating (100 = 100% disease control, 0 = no disease control) [2]: 0%; Test F disease control rating (100 = 100% disease control, 0 = no disease control) (Phytophthora infestans): 0%; Test C disease control rating (100 = 100% disease control, 0 = no disease control) (Zymoseptoria tritici): 96% |
| CCOC(=O)c1ccn(-c2ccc(C(C)OC(=O)C(C)NC(=O)c3nccc(OC)c3O)cc2)n1 (mixture of isomers) [Compound 49] | 41 | 17 | 0 | 97 | 0 | 0 | 0 |  |
| COc1ccnc(C(=O)NC(C)C(=O)OC(C)c2ccc(Br)s2)c1OC(C)=O (mixture of isomers) [Compound 67] | 55 | 53 | 0 | 13 | 0 | 0 | 36 |  |
| COc1ccnc(C(=O)N[C@@H](C)C(=O)OC(C)c2cccc(-c3ccccc3)c2)c1O (single isomer, unassigned) [Compound 3] | 99 | 32 | 16 | 100 | 0 | 0 | 83 |  |
| COc1ccnc2c(=O)n([C@@H](C)C(=O)OC(C)c3ccc(C4CCCCC4)cc3)c(=O)oc12 (single isomer, unassigned) [Compound 194] |  |  |  |  |  |  |  | Test B disease control rating (100 = 100% disease control, 0 = no disease control) [1]: 68%; Test D disease control rating (100 = 100% disease control, 0 = no disease control) (Plasmopara viticola): 18%; Test E disease control rating (100 = 100% disease control, 0 = no disease control) (Botrytis cinerea): 0%; Test A disease control rating (100 = 100% disease control, 0 = no disease control) (Phakopsora pachyrhizi): 87%; Test G disease control rating (100 = 100% disease control, 0 = no disease control) [2]: 0%; Test F disease control rating (100 = 100% disease control, 0 = no disease control) (Phytophthora infestans): 0%; Test C disease control rating (100 = 100% disease control, 0 = no disease control) (Zymoseptoria tritici): 37% |
| COc1ccnc(C(=O)N[C@@H](C)C(=O)OC(C)c2cccc(-c3ccccc3)c2)c1O (single isomer, unassigned) [Compound 4] | 41 | 56 | 31 | 99 | 0 | 0 | 28 |  |
| COc1ccnc(C(=O)NC(C)C(=O)OC(C)C2CCc3ccccc3O2)c1O (mixture of isomers) [Compound 164] | 99 | 0 | 0 | 100 | 0 | 0 | 99 |  |
| COc1ccnc(C(=O)N[C@@H](C)C(=O)OC(C)c2cccc(OC3CCC(C)(C)CC3)c2)c1OC(C)=O (some centres unmarked) [Compound 137] | 100 | 11 | 0 | 100 | 43 | 0 | 92 |  |
| CCC(OC(=O)[C@H](C)NC(=O)c1nccc(OC)c1OCOC(C)=O)C1CCCCC1 (single isomer, unassigned) [Compound 190] |  |  |  |  |  |  |  | Test B disease control rating (100 = 100% disease control, 0 = no disease control) [1]: 74%; Test D disease control rating (100 = 100% disease control, 0 = no disease control) (Plasmopara viticola): 43%; Test E disease control rating (100 = 100% disease control, 0 = no disease control) (Botrytis cinerea): 0%; Test A disease control rating (100 = 100% disease control, 0 = no disease control) (Phakopsora pachyrhizi): 100%; Test G disease control rating (100 = 100% disease control, 0 = no disease control) [2]: 0%; Test F disease control rating (100 = 100% disease control, 0 = no disease control) (Phytophthora infestans): 0%; Test C disease control rating (100 = 100% disease control, 0 = no disease control) (Zymoseptoria tritici): 46% |
| COc1ccnc(C(=O)N[C@@H](C)C(=O)OC(C)C2CCCc3ccccc32)c1O (single isomer, unassigned) [Compound 183] | 99 | 44 | 0 | 100 | 0 | 0 | 98 |  |
| COc1ccnc(C(=O)NC(C)C(=O)OC(C)C2CCC(C(F)(F)F)CC2)c1OC(C)=O (mixture of isomers) [Compound 180] | 99 | 51 | 0 | 100 | 0 | 26 | 95 |  |
| COc1ccnc(C(=O)NC(C)C(=O)OC(C)C2CCCc3ccccc32)c1OC(C)=O (mixture of isomers) [Compound 185] | 100 | 61 | 0 | 100 | 0 | 0 | 100 |  |
| COc1ccnc(C(=O)NC(C)C(=O)OC(C)c2cc3ccccc3o2)c1O (mixture of isomers) [Compound 125] | 90 | 67 | 0 | 99 | 0 | 0 | 90 |  |
| CCC(OC(=O)[C@H](C)NC(=O)c1nccc(OC)c1OCOC(=O)C(C)C)C1CCCCC1 (single isomer, unassigned) [Compound 188] |  |  |  |  |  |  |  | Test B disease control rating (100 = 100% disease control, 0 = no disease control) [1]: 68%; Test D disease control rating (100 = 100% disease control, 0 = no disease control) (Plasmopara viticola): 43%; Test E disease control rating (100 = 100% disease control, 0 = no disease control) (Botrytis cinerea): 0%; Test A disease control rating (100 = 100% disease control, 0 = no disease control) (Phakopsora pachyrhizi): 100%; Test G disease control rating (100 = 100% disease control, 0 = no disease control) [2]: 0%; Test F disease control rating (100 = 100% disease control, 0 = no disease control) (Phytophthora infestans): 0%; Test C disease control rating (100 = 100% disease control, 0 = no disease control) (Zymoseptoria tritici): 27% |
| COc1cccc(C(=O)NC(C)C(=O)OC(C)C2CCCCC2)c1O (mixture of isomers) [Compound 91] | 0 | 96 | 0 | 0 | 0 | 0 | 2 |  |
| COc1ccnc(C(=O)N[C@@H](C)C(=O)OC(C)c2ccc(F)cc2Cc2ccccc2)c1O (single isomer, unassigned) [Compound 23] | 97 | 44 | 0 | 100 | 0 | 0 | 95 |  |
| COc1ccnc(C(=O)NC(C)C(=O)OC(C)c2cccc(C3CC3)c2)c1O (mixture of isomers) [Compound 158] | 100 | 94 | 0 | 100 | 0 | 0 | 73 |  |
| CCC(OC(=O)[C@H](C)NC(=O)c1nccc(OC)c1OCOC(C)=O)C1CCCCC1 (single isomer, unassigned) [Compound 189] |  |  |  |  |  |  |  | Test B disease control rating (100 = 100% disease control, 0 = no disease control) [1]: 100%; Test D disease control rating (100 = 100% disease control, 0 = no disease control) (Plasmopara viticola): 46%; Test E disease control rating (100 = 100% disease control, 0 = no disease control) (Botrytis cinerea): 0%; Test A disease control rating (100 = 100% disease control, 0 = no disease control) (Phakopsora pachyrhizi): 100%; Test G disease control rating (100 = 100% disease control, 0 = no disease control) [2]: 26%; Test F disease control rating (100 = 100% disease control, 0 = no disease control) (Phytophthora infestans): 0%; Test C disease control rating (100 = 100% disease control, 0 = no disease control) (Zymoseptoria tritici): 98% |
| COc1ccnc(C(=O)NC(C)C(=O)OC(C)C2CCC(C(C)(C)C)CC2)c1OC(C)=O (mixture of isomers) [Compound 181] | 100 | 80 | 0 | 100 | 0 | 26 | 100 |  |
| COc1ccnc(C(=O)NC(C)C(=O)OC(C)C2CCCCCC2)c1O (mixture of isomers) [Compound 102] |  |  |  |  |  |  |  | Test B disease control rating ([1]; 50 ppm): 55%; Test D disease control rating (Plasmopara viticola; 50 ppm): 72%; Test E disease control rating (Botrytis cinerea; 50 ppm): 0%; Test A disease control rating (Phakopsora pachyrhizi; 50 ppm): 100%; Test G disease control rating ([2]; 50 ppm): 0%; Test F disease control rating (Phytophthora infestans; 50 ppm): 0%; Test C disease control rating (Zymoseptoria tritici; 50 ppm): 0% |
